This passage reports mortality results from US5556859A, “N-(4-pyrimidinyl)amide pesticides” (DowElanco, priority 1994, dated 1996).

Experiment [1] relates to tobacco budworm (Heliothis virescens). Nature of the experiment: Activity against tobacco budworm (TBW). The experiment is classed as in vivo. Particulars: 144 h, read-out: percent mortality, TBW. An outline of the steps:
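Eighteen to twenty Heliothis virescens eggs were placed on half-strength artificial diet and sprayed one hour later with compound at 400 and 50 ppm, in aqueous Tween 20 with acetone/EtOH. Cups were held 6 days at room temperature. Ratings were based on live and dead larval counts and live larval size.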

The subject of experiment [2] is peanut root knot nematode (Meloidogyne arenaria). Nature of the experiment: whole plant or invertebrate. The conditions noted are these: in Arachis hypogaea, read-out: percent mortality, RKN.
Experiment [3] relates to beet armyworm (Spodoptera exiqua). Nature of the experiment: whole plant or invertebrate. Particulars: 144 h, read-out: percent mortality, BAW.
The test system of experiment [4] is Southern corn rootworm (Diabrotica undecimpuctata howardi Barber). The experiment in a line: whole plant or invertebrate. The conditions noted are these: in Zea mays, soil, read-out: percent mortality, SCRW.
The subject of experiment [5] is aster leafhopper (Macrosteles fascifrons). Nature of the experiment: whole plant or invertebrate. Particulars: 24 h, read-out: percent mortality, ALH.
Experiment [6] deals with cotton aphid (Aphis gossypii). Nature of the experiment: whole plant or invertebrate. The conditions noted are these: 72 h, read-out: percent mortality, CA.
The subject of experiment [7] is two spotted spider mite (Tetranychus urticae). The experiment in a line: whole plant or invertebrate. Particulars: 72 h, read-out: percent mortality, TSSM.
The subject of experiment [8] is German cockroach (Blattella germanicus). The experiment in a line: whole plant or invertebrate. Particulars: 240 h, read-out: percent mortality, GECR.

Broadly, the mortality is the share of the test organisms that died.

With `CC(C)(C)c1nccc(NC(=O)Cc2ccc(Oc3ccc(C#N)cc3)cc2)n1` [Compound 60, 4-(4-cyanophenoxy)phenyl-N-(2-(1,1-dimethylethyl)-4-pyrimidinyl)acetamide], the mortality at 400 ppm in experiment [1], in experiment [2], in experiment [3], in experiment [5], in experiment [6] and in experiment [7] was 100% throughout. Further, the mortality at 400 ppm in experiment [8] stood at 100%. In addition, in experiment [4], the mortality at 24 µg/g amounted to 100%.
As for `CC(C)(C)c1nccc(NC(=O)Cc2ccc(Oc3ccc(C(F)(F)F)cc3)cc2)n1` [Compound 62, 4-(4-trifluoromethylphenoxy)phenyl-N-(2-(1,1-dimethylethyl)-4-pyrimidinyl)acetamide], the mortality at 400 ppm stood at 100% in experiment [1]; 0% in experiment [2]; 100% in experiment [3]; 80% in experiment [5]; 100% in experiment [6]; 100% in experiment [7]. Moreover, in experiment [8], the mortality at 400 ppm came out at 100%. The mortality at 24 µg/g in experiment [4] was 100%.
For the compound `Cc1nccc(NC(=O)Cc2ccc(Oc3ccc(C(F)(F)F)cc3)cc2)n1` [Compound 63, 4-(4-trifluoromethylphenoxy)phenyl-N-(2-methyl-4-pyrimidinyl)acetamide], the mortality at 400 ppm in experiment [1] stood at 100%; in experiment [2], 0%; in experiment [3], 100%; in experiment [5], 60%; in experiment [6], 100%; in experiment [7] it was 100%. The mortality at 400 ppm in experiment [8] was determined as 100%. The mortality at 24 µg/g in experiment [4] was found to be 0%.
On to `O=C(Cc1ccc(Oc2ccc(C(F)(F)F)cc2)cc1)Nc1ccnc(C2CC2)n1` [Compound 67, 4-(4-trifluoromethylphenoxy)phenyl-N-(2-cyclopropyl-4-pyrimidinyl)acetamide], for which the mortality at 400 ppm amounted to 100% in experiment [1]; 100% in experiment [2]; 100% in experiment [3]; 60% in experiment [5]; 100% in experiment [6]; 100% in experiment [7]. Moreover, in experiment [8], the mortality at 400 ppm stood at 100%. In addition, the mortality at 24 µg/g in experiment [4] turned out to be 100%.
Take `O=C(Cc1ccc(Oc2ccc(C(F)(F)F)cc2)cc1)Nc1ccncn1` [Compound 68, 4-(4-trifluoromethylphenoxy)phenyl-N-(4-pyrimidinyl)acetamide]: the mortality at 400 ppm in experiment [1] is 100%; in experiment [2], 100%; in experiment [3], 0%; in experiment [5], 0%; in experiment [6] it was 0%; in experiment [7] it was 0%. In addition, the mortality at 400 ppm in experiment [8] came to 0%. Further, the mortality at 24 µg/g in experiment [4] is 0%.
Consider `COCc1nccc(NC(=O)Cc2ccc(Oc3ccc(C(F)(F)F)cc3)cc2)n1` [Compound 70, 4-(4-trifluoromethylphenoxy)phenyl-N-(2-(methoxymethyl)-4-pyrimidinyl)acetamide], for which the mortality at 400 ppm in experiment [1] worked out at 60%; in experiment [2], 0%; in experiment [3], 100%; in experiment [5], 0%; in experiment [6] it was 90%; in experiment [7], 80%. In addition, the mortality at 400 ppm in experiment [8] was 100%. Moreover, in experiment [4], the mortality at 24 µg/g was determined as 0%.
With `O=C(Cc1ccc(Oc2cccc(C(F)(F)F)c2)cc1)Nc1ccnc(C2CCC2)n1` [Compound 71, 4-(3-trifluoromethylphenoxy)phenyl-N-(2-cyclobutyl-4-pyrimidinyl)acetamide], the mortality at 400 ppm in experiment [1] came out at 60%; in experiment [2], 0%; in experiment [3], 100%; in experiment [5], 0%; in experiment [6] it was 0%; in experiment [7], 0%. Further, the mortality at 400 ppm in experiment [8] worked out at 100%. For the same compound, the mortality at 24 µg/g in experiment [4] is 0%.
